Results reported in patent US7163941B2, “Pyrido[2,3-d]pyrimidin-7-carboxylic acid derivatives, their manufacture and use as pharmaceutical agents” (Hoffmann-La Roche Inc., priority 2003, dated 2007).

Columns and labels:
[1] = molecular target: T1, Src (p60^c-src, partially purified) (Homo sapiens, UniProt P12931); experiment: SRC-Inhibitor-Assay (time-resolved fluorescence), Src enzyme; assay type: biochemical; conditions: ATP 5 μM, peptide 10 μM, enzyme 2.5 U/ml, pre-incubation 15 min at 15° C.
T1 construct: purchased Upstate (UBI)
Experimental: (§1) The activity of the compounds according to this invention as inhibitors for the src-family tyrosine kinases was shown by using the following assay.
(§2) SRC-Inhibitor-Assay Parameters:
(§3) • Reaction mixture: • ATP 5 μM • Peptide (R+Ja133-Ro): 10 μM • Ja133-Ro 196 nM • Ro 9.8 μM • PT66 230 ng/ml • Assay buffer: 4 mM MgCl2 • 2 mM TCEP • 50 mM HEPES • 0,1% Tween 20 • pH 7.3 • Enzyme: 2.5 U/ml • Inhibitor: max. 25 μM • min. 0.42 nM Material: • Eu-labelled phosphotyrosine antibody: -for Lck Cisbio Mab PT66-K, • for Src EG&G Wallac PT66 Eu-W1024 (all commercially available). • Peptides: Ro: NH2-A-E-E-E-I-Y-G-E-F-E-A-K-K-K-K-CONH2 (SEQ ID NO: 1), and • Ja133-Ro: Ja133-G-Aminocaprylic acid-A-E-E-E-I-Y-G-E-F-E-A-K-K-K-K-CONH2 (SEQ ID NO: 2), wherein Ja133 is LightCycler-Red 640-N-hydroxy succinimide ester; • whereby both peptides were synthesized by an optimized solid phase peptide synthesis protocol (Merrifield, Fed. Proc. Fed. Amer. Soc. Exp. Biol. 21 (1962) 412) on a Zinsser SMP350 peptide synthesizer. Shortly, the peptide was assembled on 160 mg (22.8 μmol scale) of a Rink-Linker modified polystyrene solid phase by repeatedly conjugating an twenty fold excess of aminoacids each protected by temporary piperidine labile Fmoc- and permanent acid labile tert-Bu-, BOC- and Otert-Bu-groups depending on the side chain function. The substrate sequence AEEEIYGEFEAKKKK (SEQ ID NO: 1) was N-terminal additionally mounted with the spacer amino acids Aminocaprylic acid and Glycin. After cleavage of the N-terminal temporary protecting group the still attached and protected peptide was labeled with a 1.5 fold amount of LightCycler-Red 640-N-hydroxy succinimide ester (purchased by Roche Diagnostics GmbH) and triethylamine. After 3 hrs. the resin was washed with Dimethylformamide and Isopropanol until the eluates of the blue resin got colo-rless. […] The substrate was finally isolated by a preparative reverse phase HPLC purification. The purification yielded 12.2 mg RP-HPLC single peak pure blue material (lyophilisate). The identity was proven by MALDI mass spectroscopy [2720.0]. • Enzymes: Upstate Lck (p56^lck, active), Upstate Src (p60^c-src, partially purified) were purchased from UBI. • Time-resolved Fluorescence Assay: Reader: Perkin Elmer, Wallac Viktor 1420-040 multilabel counter; Liquid handling system: Beckman Coulter, Biomek 2000. ATP, Tween 20, HEPES were purchased from Roche Molecular Biochemicals, MgCl2 and MnCl2 were purchased from Merck Eurolab, TCEP was purchased from Pierce, 384 Well low volume fluorescence plates was purchased from Falcon. Assay Description:
(§4) At first the enzyme is pre-incubated for 15 min. at 15° C. in aqueous solution with corresponding amounts of inhibitors according to this invention. Then the phosphorylation reaction is started by adding a reaction mixture, containing ATP, Peptide and PT66, and subsequent shaking. The proceeding of this reaction is immediately monitored using time resolved fluorescence spectroscopy in a suitable well plate reader.
(§5) The IC50-values can be obtained from the reaction rates by using a non-linear curve fit (Excelfit).

[2] = molecular target: T2, Lck (p56^lck, active) (Homo sapiens, UniProt P06239); experiment: SRC-Inhibitor-Assay (time-resolved fluorescence), Lck enzyme; assay type: biochemical; conditions: ATP 5 μM, peptide 10 μM, enzyme 2.5 U/ml, pre-incubation 15 min at 15° C.
T2 construct: purchased Upstate (UBI)
Experimental: as §1, §2, §3, §4, §5

T1 sequence (P12931 whole entry, species assumed): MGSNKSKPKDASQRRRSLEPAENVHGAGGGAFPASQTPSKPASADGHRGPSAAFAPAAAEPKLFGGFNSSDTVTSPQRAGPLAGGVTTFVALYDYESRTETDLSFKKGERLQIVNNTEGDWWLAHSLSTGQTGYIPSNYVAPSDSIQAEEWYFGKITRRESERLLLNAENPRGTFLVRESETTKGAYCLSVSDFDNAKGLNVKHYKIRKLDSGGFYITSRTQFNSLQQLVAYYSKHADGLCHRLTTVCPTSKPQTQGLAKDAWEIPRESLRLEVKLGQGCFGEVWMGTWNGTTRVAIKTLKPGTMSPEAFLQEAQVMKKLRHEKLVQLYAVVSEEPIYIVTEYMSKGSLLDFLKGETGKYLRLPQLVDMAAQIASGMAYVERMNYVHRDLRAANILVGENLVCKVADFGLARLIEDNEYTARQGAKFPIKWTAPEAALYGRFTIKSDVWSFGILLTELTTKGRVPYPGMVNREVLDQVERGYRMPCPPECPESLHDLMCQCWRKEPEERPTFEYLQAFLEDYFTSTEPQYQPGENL
T2 sequence (P06239 whole entry, species assumed): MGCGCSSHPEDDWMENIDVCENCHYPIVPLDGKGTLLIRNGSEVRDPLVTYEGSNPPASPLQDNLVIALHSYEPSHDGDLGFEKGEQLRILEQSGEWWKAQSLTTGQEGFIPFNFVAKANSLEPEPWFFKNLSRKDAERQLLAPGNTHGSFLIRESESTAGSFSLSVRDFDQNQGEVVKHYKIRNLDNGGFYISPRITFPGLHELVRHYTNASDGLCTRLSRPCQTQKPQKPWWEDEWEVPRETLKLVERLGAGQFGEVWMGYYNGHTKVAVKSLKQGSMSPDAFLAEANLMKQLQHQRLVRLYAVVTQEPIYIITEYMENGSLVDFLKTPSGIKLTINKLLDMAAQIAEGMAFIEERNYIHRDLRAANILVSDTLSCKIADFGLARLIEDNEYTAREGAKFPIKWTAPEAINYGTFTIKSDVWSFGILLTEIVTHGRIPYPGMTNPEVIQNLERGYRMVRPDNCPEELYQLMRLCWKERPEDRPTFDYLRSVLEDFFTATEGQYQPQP

IC50 [1] [nM]	IC50 [2] [nM]	SMILES
6.5	20.1	N#Cc1nc2nc(Nc3ccc(N4CCOCC4)cc3)ncc2cc1-c1ccccc1Br [Example 4-1, 6-(2-Bromo-phenyl)-2-(4-morpholin-4-yl-phenylamino)-pyrido[2,3-d]pyrimidine-7-carbonitrile; compound with trifluoro-acetic acid]
1.8	5.1	CCN(CC)CCOc1ccc(Nc2ncc3cc(-c4ccccc4Br)c(C#N)nc3n2)cc1 [Example 4-2, 6-(2-Bromo-phenyl)-2-[4-(2-diethylamino-ethoxy)-phenylamino]-pyrido[2,3-d]pyrimidine-7-carbonitrile]
4.5	49.9	N#Cc1nc2nc(Nc3ccc(OCCO)cc3)ncc2cc1-c1ccccc1Br [Example 4-3, 6-(2-Bromo-phenyl)-2-[4-(2-hydroxy-ethoxy)-phenylamino]-pyrido[2,3-d]pyrimidine-7-carbonitrile]
1.1	4.2	CCNCCOc1ccc(Nc2ncc3cc(-c4ccccc4Br)c(C#N)nc3n2)cc1 [Example 4-4, 6-(2-Bromo-phenyl)-2-[4-(2-ethylamino-ethoxy)-phenylamino]-pyrido[2,3-d]pyrimidine-7-carbonitrile]
3.5	52.1	C[S+]([O-])c1cccc(Nc2ncc3cc(-c4ccccc4Br)c(C#N)nc3n2)c1 (stereo not shown) [Example 4-5, 6-(2-Bromo-phenyl)-2-(3-methanesulfinyl-phenylamino)-pyrido[2,3-d]pyrimidine-7-carbonitrile]
16.2	99.7	N#Cc1nc2nc(Nc3cccc(S(=O)(=O)CCO)c3)ncc2cc1-c1ccccc1Br [Example 4-6, 6-(2-Bromo-phenyl)-2-[3-(2-hydroxy-ethanesulfonyl)-phenylamino]-pyrido[2,3-d]pyrimidine-7-carbonitrile]
30.9	99.1	O=C(NCCO)c1nc2nc(Nc3cccc(CO)c3)ncc2cc1-c1ccccc1Br [Example 7-4, 6-(2-bromo-phenyl)-2-(3-hydroxymethyl-phenylamino)-pyrido[2,3-d]pyrimidine-7-carboxylic acid (2-hydroxy-ethyl)-amide]
11.3	232	NS(=O)(=O)CCNC(=O)c1nc2nc(Nc3ccc4c(c3)S(=O)(=O)CCO4)ncc2cc1-c1ccccc1Br [Example 7-13, 6-(2-bromo-phenyl)-2-(4,4-dioxo-3,4-dihydro-2H-4lambda*6*-benzo[1,4]oxathiin-6-ylamino)-pyrido[2,3-d]pyrimidine-7-carboxylic acid (2-sulfamoyl-ethyl)-amide]

More lines, now with the values behind:

SMILES	IC50 [1] [nM]	IC50 [2] [nM]
O=C(NC1CN2CCC1CC2)c1nc2nc(Nc3ccc(F)cc3)ncc2cc1-c1ccccc1Br (stereo not shown) [Example 3-35, 6-(2-Bromo-phenyl)-2-(4-fluoro-phenylamino)-pyrido[2,3-d]pyrimidine-7-carboxylic acid (1-aza-bicyclo[2.2.2]oct-3-yl)-amide]	73.1	251
O=C(NCCNc1ccccn1)c1nc2nc(Nc3ccc(F)cc3)ncc2cc1-c1ccccc1Br [Example 3-36, 6-(2-Bromo-phenyl)-2-(4-fluoro-phenylamino)-pyrido[2,3-d]pyrimidine-7-carboxylic acid [2-(pyridin-2-ylamino)-ethyl]-amide]	165	256
NS(=O)(=O)CCNC(=O)c1nc2nc(Nc3ccc(F)cc3)ncc2cc1-c1ccccc1Br [Example 3-37, 6-(2-Bromo-phenyl)-2-(4-fluoro-phenylamino)-pyrido[2,3-d]pyrimidine-7-carboxylic acid (2-sulfamoyl-ethyl)-amide]	21	189
O=C(NCCCO)c1nc2nc(Nc3ccc(F)cc3)ncc2cc1-c1ccccc1Br [Example 3-38, 6-(2-Bromo-phenyl)-2-(4-fluoro-phenylamino)-pyrido[2,3-d]pyrimidine-7-carboxylic acid (3-hydroxy-propyl)-amide]	91.8	456
O=C(NCCc1cnc[nH]1)c1nc2nc(Nc3ccc(F)cc3)ncc2cc1-c1ccccc1Br [Example 3-39, 6-(2-Bromo-phenyl)-2-(4-fluoro-phenylamino)-pyrido[2,3-d]pyrimidine-7-carboxylic acid [2-(3H-imidazol-4-yl)-ethyl]-amide]	24.3	114
C[S+]([O-])CCNC(=O)c1nc2nc(Nc3ccc(F)cc3)ncc2cc1-c1ccccc1Br (stereo not shown) [Example 3-40, 6-(2-Bromo-phenyl)-2-(4-fluoro-phenylamino)-pyrido[2,3-d]pyrimidine-7-carboxylic acid (2-methanesulfinyl-ethyl)-amide]	149	584
Cc1cc(CNC(=O)c2nc3nc(Nc4ccc(F)cc4)ncc3cc2-c2ccccc2Br)nn1C [Example 3-41, 6-(2-Bromo-phenyl)-2-(4-fluoro-phenylamino)-pyrido[2,3-d]pyrimidine-7-carboxylic acid (1,5-dimethyl-1H-pyrazol-3-ylmethyl)-amide]	26	126
NC(=O)c1c[nH]nc1NC(=O)c1nc2nc(Nc3ccc(F)cc3)ncc2cc1-c1ccccc1Br [Example 3-42, 6-(2-Bromo-phenyl)-2-(4-fluoro-phenylamino)-pyrido[2,3-d]pyrimidine-7-carboxylic acid (4-carbamoyl-1H-pyrazol-3-yl)-amide]	56.3	694
O=C(NCC[S+]([O-])CCO)c1nc2nc(Nc3ccc(F)cc3)ncc2cc1-c1ccccc1Br (stereo not shown) [Example 3-43, 6-(2-Bromo-phenyl)-2-(4-fluoro-phenylamino)-pyrido[2,3-d]pyrimidine-7-carboxylic acid [2-(2-hydroxy-ethanesulfinyl)-ethyl]-amide]	129	809
CNCCNC(=O)c1nc2nc(Nc3ccc(N4CCOCC4)cc3)ncc2cc1-c1ccccc1Br [Example 3-44, 6-(2-Bromo-phenyl)-2-(4-morpholin-4-yl-phenylamino)-pyrido[2,3-d]pyrimidine-7-carboxylic acid (2-methylamino-ethyl)-amide]	1	2.5
O=C(NCCO)c1nc2nc(Nc3ccc(F)cc3)ncc2cc1-c1ccccc1Br [Example 3-45, 6-(2-Bromo-phenyl)-2-(4-fluoro-phenylamino)-pyrido[2,3-d]pyrimidine-7-carboxylic acid (2-hydroxy-ethyl)-amide]	21.5	155
CN(C)CC(=O)NNC(=O)c1nc2nc(Nc3ccc(F)cc3)ncc2cc1-c1ccccc1Br [Example 3-46, 6-(2-Bromo-phenyl)-2-(4-fluoro-phenylamino)-pyrido[2,3-d]pyrimidine-7-carboxylic acid N′-(2-dimethylamino-acetyl)-hydrazide]	16.8	38.1
O=C(N[C@H]1CCCNC1)c1nc2nc(Nc3ccc(F)cc3)ncc2cc1-c1ccccc1Br [Example 3-47, (S)-6-(2-Bromo-phenyl)-2-(4-fluoro-phenylamino)-pyrido[2,3-d]pyrimidine-7-carboxylic acid piperidin-3-ylamide]	6.6	27.5
O=C(NC[C@H]1CCCN1)c1nc2nc(Nc3ccc(F)cc3)ncc2cc1-c1ccccc1Br [Example 3-48, (R)-6-(2-Bromo-phenyl)-2-(4-fluoro-phenylamino)-pyrido[2,3-d]pyrimidine-7-carboxylic acid (pyrrolidin-2-ylmethyl)-amide]	2.1	38.1
O=C(Nc1cc[nH]n1)c1nc2nc(Nc3ccc(F)cc3)ncc2cc1-c1ccccc1Br [Example 3-49, 6-(2-Bromo-phenyl)-2-(4-fluoro-phenylamino)-pyrido[2,3-d]pyrimidine-7-carboxylic acid (1H-pyrazol-3-yl)-amide]	4.3	7.3
